Data as given in patent US20260234157A1, “COMPOUND AND METHOD FOR TARGETED DEGRADATION OF ANDROGEN RECEPTOR” (Gan & Lee Pharmaceuticals Co., Ltd., priority 2023, published 2026).
Positions count from the first letter of the chain named. Read-outs that look alike come from different tables or passages of the source.

How the values were obtained:
Assay type in all cases: cell-based
VCaP cells = test: Inhibition of proliferation of VCaP cells (WST-8); conditions: Homo sapiens, read-out: IC50 for inhibiting the proliferation of VCaP cells
In short: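 VCaP FGC cells, 15000 per well in DMEM with 10% FBS, were cultured at 37° C, 5% CO2. On day nine, WST-8 reagent was added to read proliferation.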

AR protein [1] = target: T1, AR protein (Homo sapiens, UniProt P10275, T878A); test: Degradation of AR protein in LNCaP cells (Western blot); conditions: for inhibition at 0.01 µM: read-out: Degradation rates of the AR protein in LNCaP cells, 10 nM (%); for inhibition at 0.1 µM: read-out: Degradation rates of the AR protein in LNCaP cells, 100 nM (%)
T1 construct: degradation activity of the compounds disclosed in the present disclosure on AR protein in LNCaP cells; host or cells: LNCaP FGC
T1 sequence (P10275 1-920 T878A): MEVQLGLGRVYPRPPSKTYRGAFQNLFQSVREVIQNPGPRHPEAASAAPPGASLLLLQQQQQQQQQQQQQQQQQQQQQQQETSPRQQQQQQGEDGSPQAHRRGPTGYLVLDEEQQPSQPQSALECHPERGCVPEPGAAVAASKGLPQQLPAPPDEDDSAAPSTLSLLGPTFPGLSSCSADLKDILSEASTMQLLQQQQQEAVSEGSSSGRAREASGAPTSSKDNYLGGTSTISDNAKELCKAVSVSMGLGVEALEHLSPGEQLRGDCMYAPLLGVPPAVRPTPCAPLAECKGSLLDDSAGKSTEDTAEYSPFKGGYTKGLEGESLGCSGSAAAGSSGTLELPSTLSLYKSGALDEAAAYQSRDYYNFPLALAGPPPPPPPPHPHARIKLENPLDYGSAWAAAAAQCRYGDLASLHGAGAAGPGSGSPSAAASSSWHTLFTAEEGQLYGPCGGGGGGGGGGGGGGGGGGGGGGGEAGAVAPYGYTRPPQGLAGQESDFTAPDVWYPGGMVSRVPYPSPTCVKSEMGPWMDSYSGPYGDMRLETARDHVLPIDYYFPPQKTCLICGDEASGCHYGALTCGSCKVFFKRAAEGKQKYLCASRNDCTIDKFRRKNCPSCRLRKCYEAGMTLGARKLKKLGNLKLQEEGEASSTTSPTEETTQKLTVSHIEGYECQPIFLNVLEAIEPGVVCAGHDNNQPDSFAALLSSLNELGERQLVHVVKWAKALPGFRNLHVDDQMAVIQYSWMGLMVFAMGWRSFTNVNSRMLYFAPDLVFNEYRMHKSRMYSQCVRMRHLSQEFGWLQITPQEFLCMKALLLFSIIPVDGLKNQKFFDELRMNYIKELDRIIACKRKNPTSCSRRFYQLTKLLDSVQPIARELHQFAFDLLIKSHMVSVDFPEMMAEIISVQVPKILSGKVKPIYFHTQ
In short: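 AR assessed by SDS-PAGE/Western blot with infrared imaging; band greyscale normalised to GAPDH gave percent degradation.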

AR protein [2] = target: T2, AR protein (Homo sapiens, UniProt P10275); test: Degradation of AR protein in VCaP cells (Western blot); conditions: 8 hours; for inhibition at 0.01 µM: compound at 10 nM, read-out: Degradation rate of the AR protein in VCaP cells, 10 nM (%); for inhibition at 0.1 µM: compound at 100 nM, read-out: Degradation rate of the AR protein in VCaP cells, 100 nM (%)
T2 construct: degradation activity of the compounds disclosed in the present disclosure on AR protein in VCaP cells; host or cells: VCaP
T2 sequence (P10275 1-920): T1 sequence (P10275 1-920 T878A) with A878T
In short: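 VCaP cells treated with compound alongside solvent controls for 8 h, then lysed in RIPA and protein quantified by BCA. AR detected by SDS-PAGE/Western blot with infrared imaging. Degradation rate calculated from band grayscale, with GAPDH as internal reference.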

LNCaP FGC cells = test: Inhibition of proliferation of LNCaP cells (WST-8); conditions: Homo sapiens, LNCaP, 96 h
Method: The cells were cultured in a cell culture incubator with 5% CO2 at 37° C. overnight. […] On the sixth day, 96 well plates were taken out, and 20 μL of WST-8 (Beytime, C0040) reagent was added to each well.

[3] = VCaP cells, 168 hours, WST-8 absorbance at 450 nm
[4] = LNCaP cells, compound 10 nM, 8 hours, Western blot grayscale, GAPDH internal reference
[5] = LNCaP cells, compound 100 nM, 8 hours, Western blot grayscale, GAPDH internal reference
[6] = LNCaP FGC cells, 96 hours, WST-8 absorbance at 450 nm, read-out: IC50 for inhibiting the proliferation of LNCaP cells
[7] = read-out: IC50 for inhibiting the proliferation of LNCaP cells, LNCaP FGC cells, 96 hours, WST-8 absorbance at 450 nm

Row | SMILES | IC50 (VCaP cells; [3]) | inhibition at 0.01 µM (AR protein [1]; [4]) | inhibition at 0.1 µM (AR protein [1]; [5]) | inhibition at 0.01 µM (AR protein [2]) | inhibition at 0.1 µM (AR protein [2]) | IC50 (LNCaP FGC cells; [6]) | IC50 (VCaP cells; VCaP, 168 h) | inhibition at 0.01 µM (AR protein [1]; LNCaP, 8 h) | inhibition at 0.1 µM (AR protein [1]; LNCaP, 8 h) | IC50 (LNCaP FGC cells; [7])
1 | CCOC1(CN2CCC3(CC2)COc2c3ccc3c2C(=O)N(C2CCC(=O)NC2=O)C3=O)CCN(c2ccc(C(=O)N[C@H]3CC[C@H](Oc4ccc(C#N)c(OC)c4)CC3)nn2)CC1 (stereo partly drawn) [Compound 243] | 0.018 µM | 24% | 58% | 16% | 68% | 0.12 µM |  |  |  | 
2 | N#Cc1ccc(O[C@H]2CC[C@H](NC(=O)c3ccc(N4CC(N5CCC6(CCc7ccc8c(c7O6)CN(C6CCC(=O)NC6=O)C8=O)CC5)C4)nn3)CC2)cc1Cl (stereo partly drawn) [Compound 172] |  |  |  | -9% | -14% |  | 78.8 µM | 12% | 33% | 91.4 µM
3 | N#Cc1ccc(O[C@H]2CC[C@H](NC(=O)c3ccc(N4CC(N5CCC6(CC5)COc5c(ccc7c5C(=O)N(C5CCC(=O)NC5=O)C7)C6)C4)nn3)CC2)cc1Cl (stereo partly drawn) [Compound 191] |  |  |  | 31% | 68% |  | > 90 µM | -2% | 4% | 15.2 µM
4 | N#Cc1ccc(O[C@H]2CC[C@H](NC(=O)c3ccc(N4CCC(N5CCC(N6CCC7(CC6)COc6c7ccc7c6CN(C6CCC(=O)NC6=O)C7=O)CC5)CC4)nn3)CC2)cc1Cl (stereo partly drawn) [Compound 173] |  |  |  | 75% | 86% |  | 0.001 µM | 75% | 72% | 12.3 µM
5 | N#Cc1ccc(O[C@H]2CC[C@H](NC(=O)c3ccc(N4CCC(CO)(CN5CCC6(CC5)COc5c6ccc6c5CN(C5CCC(=O)NC5=O)C6=O)CC4)nn3)CC2)cc1Cl (stereo partly drawn) [Compound 257] | 0.0015 µM | 36% | -41% | 67% | 75% | 0.014 µM |  |  |  | 
6 | CCC1(CN2CCC3(CC2)COc2c3ccc3c2C(=O)N(C2CCC(=O)NC2=O)C3=O)CCN(c2ccc(C(=O)N[C@H]3CC[C@H](Oc4ccc(C#N)c(OC)c4)CC3)nn2)CC1 (stereo partly drawn) [Compound 250] | 0.16 µM | -14% | 67% | 15% | 61% | > 90 µM |  |  |  | 

Second part, led by results:

Row | IC50 (VCaP cells; [3]) | inhibition at 0.01 µM (AR protein [1]; [4]) | inhibition at 0.1 µM (AR protein [1]; [5]) | inhibition at 0.01 µM (AR protein [2]) | inhibition at 0.1 µM (AR protein [2]) | IC50 (LNCaP FGC cells; [6]) | SMILES | IC50 (VCaP cells; VCaP, 168 h) | inhibition at 0.01 µM (AR protein [1]; LNCaP, 8 h) | inhibition at 0.1 µM (AR protein [1]; LNCaP, 8 h) | IC50 (LNCaP FGC cells; [7])
7 | 0.31 µM | 28% | 51% | -31% | 13% | 70.5 µM | COc1cc(O[C@H]2C(C)(C)[C@H](NC(=O)c3ccc(N4CCC(C)(CN5CCC6(CCc7cc8c(cc7O6)C(=O)N(C6CCC(=O)NC6=O)C8=O)CC5)CC4)cc3)C2(C)C)ccc1C#N (stereo partly drawn) [Compound 287] |  |  |  | 
8 | 0.52 µM | 46% | 76% | 66% | 74% | 0.82 µM | N#Cc1ccc(O[C@H]2CC[C@H](NC(=O)c3ccc(N4CCC5(CCC(N6CCC7(CC6)COc6cc8c(cc6C7)C(=O)N(C6CCC(=O)NC6=O)C8=O)CC5)C4)nn3)CC2)cc1Cl (stereo partly drawn) [Compound 62] |  |  |  | 
9 | 9.2 µM | -3% | 34% | -30% | -16% | 60 µM | COc1cc(O[C@H]2C(C)(C)[C@H](NC(=O)c3ccc(N4CCC(CN5CC6(CCc7ccc8c(c7O6)C(=O)N(C6CCC(=O)NC6=O)C8=O)C5)CC4)cc3)C2(C)C)ccc1C#N (stereo partly drawn) [Compound 278] |  |  |  | 
10 | 0.38 µM | 14% | 39% | 33% | 44% | 0.11 µM | N#Cc1ccc(O[C@H]2CC[C@H](NC(=O)c3ccc(N4CCC(N5CCC6(CCc7cc8c(cc7O6)C(=O)N(C6CCC(=O)NC6=O)C8=O)CC5)C(F)(F)C4)nn3)CC2)cc1Cl (stereo partly drawn) [Compound 27] |  |  |  | 
11 | 0.0085 µM | 50% | 63% | 29% | 77% | 68.6 µM | N#Cc1ccc(O[C@H]2CC[C@H](NC(=O)c3ccc(N4CCN(CC(=O)N5CCC6(CC5)COc5c6ccc6c5CN(C5CCC(=O)NC5=O)C6=O)CC4)nn3)CC2)cc1Cl (stereo partly drawn) [Compound 241] |  |  |  | 
12 | 3.34 µM | 52% | 35% | 65% | 86% | 3.13 µM | N#Cc1ccc(O[C@H]2CC[C@H](NC(=O)c3ccc(N4CCC5(CCC(N6CCC7(CCc8ccc9c(c8O7)CN(C7CCC(=O)NC7=O)C9=O)CC6)CC5)CC4)nn3)CC2)cc1Cl (stereo partly drawn) [Compound 150] |  |  |  | 
13 | > 90 µM | 28% | 25% | -43% | 23% | 96.6 µM | COC1(CN2CC3(CCc4ccc5c(c4O3)C(=O)N(C3CCC(=O)NC3=O)C5=O)C2)CCN(c2ccc(C(=O)N[C@H]3CC[C@H](Oc4ccc(C#N)c(Cl)c4)CC3)nn2)CC1 (stereo partly drawn) [Compound 165] |  |  |  | 
14 | 0.002 µM | 49% | 25% | 39% | 67% | 1.76 µM | COc1cc(O[C@H]2CC[C@H](NC(=O)c3ccc(N4CCC(F)(CN5CC6(CCc7cc8c(cc7O6)CN(C6CCC(=O)NC6=O)C8=O)C5)CC4)nn3)CC2)ccc1C#N (stereo partly drawn) [Compound 209] |  |  |  | 
15 | 0.047 µM | 9% | 57% | 21% | 53% | 2.88 µM | COc1cc(O[C@H]2C(C)(C)[C@H](NC(=O)c3ccc(N4CCC(C)(CN5CC6(CCc7cc8c(cc7O6)C(=O)N(C6CCC(=O)NC6=O)C8=O)C5)CC4)cc3)C2(C)C)ccc1C#N (stereo partly drawn) [Compound 291] |  |  |  | 
